Reference: ChEMBL document CHEMBL5365394, “Design, synthesis and biological evaluation of novel spiro-quinazolinone derivatives as chitin synthase inhibitors and antifungal agents” (Eur J Med Chem, 2023)
Converted amounts (≈) assume the structure as drawn.

Tested on: Cryptococcus neoformans
Experiment: Synergistic antifungal activity against Cryptococcus neoformans ATCC 32719 assessed as fractional inhibitory concentration index incubated for 24 hrs in presence of polyoxin B by checkerboard broth microdilution method
Assay type: functional
Settings: not given

Row | SMILES | fractional inhibitory concentration index (FICI)
1 | O=C(/C=C/C(=O)Nc1ccc2c(c1)C(=O)NC1(CCSC1)N2)Nc1ccc(Br)cc1 (stereo not given) | 0.75

Tested on: Aspergillus flavus
Experiment: Synergistic antifungal activity against Aspergillus flavus ATCC 16870 assessed as polyoxin B MIC incubated for 24 hrs by checkerboard broth microdilution method
Assay type: functional
Settings: not given

Row | SMILES | MIC
2 | O=C(/C=C/C(=O)Nc1ccc2c(c1)C(=O)NC1(CCSC1)N2)Nc1ccc(Br)cc1 (stereo not given) | 2 µg/mL

Tested on: Aspergillus flavus
Experiment: Antifungal activity against Aspergillus flavus ATCC 16870 assessed as inhibition of cell wall synthesis incubated for 24 hrs in absence of sorbitol
Assay type: functional
Settings: not given

Row | SMILES | MIC
3 | O=C(/C=C/C(=O)Nc1ccc2c(c1)C(=O)NC1(CCSC1)N2)Nc1ccc(Br)cc1 (stereo not given) | 32 µg/mL (≈ 65.7 µM)

Tested on: Candida tropicalis
Experiment: Inhibition of Candida tropicalis ATCC 750 chitin synthase using […] as substrate at 300 ug/ml incubated for 1 hr by absorbance based assay relative to control
Settings: dose 300.0 µg/ml

Row | SMILES | inhibition
4 | O=C(/C=C/C(=O)Nc1ccc2c(c1)C(=O)NC1(CCSC1)N2)Nc1ccc(Br)cc1 (stereo not given) | 75.3%

Tested on: Candida albicans
Experiment: Additive antifungal activity against Candida albicans ATCC 76615 assessed as fractional inhibitory concentration index incubated for 24 hrs in presence of fluconazole by checkerboard broth microdilution method
Assay type: functional
Settings: not given

Row | SMILES | fractional inhibitory concentration index (FICI)
5 | O=C(/C=C/C(=O)Nc1ccc2c(c1)C(=O)NC1(CCSC1)N2)Nc1ccc(Br)cc1 (stereo not given) | 1.5

Tested on: Candida albicans
Experiment: Antifungal activity against Fluconazole-resistant Candida albicans ATCC 76615R assessed as fungal growth inhibition
Assay type: functional
Settings: not given

Row | SMILES | MIC
6 | O=C(/C=C/C(=O)Nc1ccc2c(c1)C(=O)NC1(CCSC1)N2)Nc1ccc(Br)cc1 (stereo not given) | 32 µg/mL (≈ 65.7 µM)

Tested on: Candida albicans
Experiment: Additive antifungal activity against Candida albicans ATCC 76615 assessed as fractional inhibitory concentration index incubated for 24 hrs in presence of polyoxin B by checkerboard broth microdilution method
Assay type: functional
Settings: not given

Row | SMILES | fractional inhibitory concentration index (FICI)
7 | O=C(/C=C/C(=O)Nc1ccc2c(c1)C(=O)NC1(CCSC1)N2)Nc1ccc(Br)cc1 (stereo not given) | 1.25

Tested on: Aspergillus fumigatus
Experiment: Antifungal activity against Fluconazole-resistant Aspergillus fumigatus GIMCC 3.19R assessed as fungal growth inhibition
Assay type: functional
Settings: not given

Row | SMILES | MIC
8 | O=C(/C=C/C(=O)Nc1ccc2c(c1)C(=O)NC1(CCSC1)N2)Nc1ccc(Br)cc1 (stereo not given) | 16 µg/mL (≈ 32.8 µM)

Tested on: Aspergillus flavus
Experiment: Additive antifungal activity against Aspergillus flavus ATCC 16870 assessed as fractional inhibitory concentration index incubated for 24 hrs in presence of fluconazole by checkerboard broth microdilution method
Assay type: functional
Settings: not given

Row | SMILES | fractional inhibitory concentration index (FICI)
9 | O=C(/C=C/C(=O)Nc1ccc2c(c1)C(=O)NC1(CCSC1)N2)Nc1ccc(Br)cc1 (stereo not given) | 1.5

Tested on: Candida albicans
Experiment: Synergistic antifungal activity against Candida albicans ATCC 76615 assessed as fluconazole MIC incubated for 24 hrs in by checkerboard broth microdilution method
Assay type: functional
Settings: not given

Row | SMILES | MIC
10 | O=C(/C=C/C(=O)Nc1ccc2c(c1)C(=O)NC1(CCSC1)N2)Nc1ccc(Br)cc1 (stereo not given) | 1 µg/mL

Tested on: Aspergillus flavus
Experiment: Antifungal activity against Aspergillus flavus ATCC 16870 assessed as inhibition of cell wall synthesis incubated for 24 hrs in presence of sorbitol
Assay type: functional
Settings: not given

Row | SMILES | MIC
11 | O=C(/C=C/C(=O)Nc1ccc2c(c1)C(=O)NC1(CCSC1)N2)Nc1ccc(Br)cc1 (stereo not given) | 256 µg/mL

Tested on: Aspergillus flavus
Experiment: Antifungal activity against Aspergillus flavus ATCC 16870 assessed as fungal growth inhibition incubated for 24 hrs by two-fold serial dilution method
Assay type: functional
Settings: not given

Row | SMILES | MIC
12 | O=C(/C=C/C(=O)Nc1ccc2c(c1)C(=O)NC1(CCSC1)N2)Nc1ccc(Br)cc1 (stereo not given) | 16 µg/mL (≈ 32.8 µM)

Tested on: Aspergillus fumigatus
Experiment: Synergistic antifungal activity against Aspergillus fumigatus GIMCC 3.19 assessed as fluconazole MIC incubated for 24 hrs in by checkerboard broth microdilution method
Assay type: functional
Settings: not given

Row | SMILES | MIC
13 | O=C(/C=C/C(=O)Nc1ccc2c(c1)C(=O)NC1(CCSC1)N2)Nc1ccc(Br)cc1 (stereo not given) | 1 µg/mL

Tested on: Cryptococcus neoformans
Experiment: Antifungal activity against Cryptococcus neoformans ATCC 32719 assessed as fungal growth inhibition incubated for 24 hrs by two-fold serial dilution method
Assay type: functional
Settings: not given

Row | SMILES | MIC
14 | O=C(/C=C/C(=O)Nc1ccc2c(c1)C(=O)NC1(CCSC1)N2)Nc1ccc(Br)cc1 (stereo not given) | 2 µg/mL (≈ 4.1 µM)

Tested on: Candida albicans
Experiment: Synergistic antifungal activity against Candida albicans ATCC 76615 assessed as polyoxin B MIC incubated for 24 hrs by checkerboard broth microdilution method
Assay type: functional
Settings: not given

Row | SMILES | MIC
15 | O=C(/C=C/C(=O)Nc1ccc2c(c1)C(=O)NC1(CCSC1)N2)Nc1ccc(Br)cc1 (stereo not given) | 2 µg/mL

Tested on: Aspergillus fumigatus
Experiment: Antifungal activity against Aspergillus fumigatus GIMCC 3.19 assessed as inhibition of cell wall synthesis incubated for 24 hrs in presence of sorbitol
Assay type: functional
Settings: not given

Row | SMILES | MIC
16 | O=C(/C=C/C(=O)Nc1ccc2c(c1)C(=O)NC1(CCSC1)N2)Nc1ccc(Br)cc1 (stereo not given) | 256 µg/mL

Tested on: not listed separately
Experiment: Inhibition of Candida tropicalis ATCC 750 chitin synthase using UDP-GlcNAc as substrate incubated for 1 hr by absorbance based assay
Settings: not given

Row | SMILES | IC50
17 | O=C(/C=C/C(=O)Nc1ccc2c(c1)C(=O)NC1(CCSC1)N2)Nc1ccc(Br)cc1 (stereo not given) | 117 µM

Tested on: Aspergillus flavus
Experiment: Antifungal activity against Fluconazole-resistant Aspergillus flavus ATCC 16870R assessed as fungal growth inhibition
Assay type: functional
Settings: not given

Row | SMILES | MIC
18 | O=C(/C=C/C(=O)Nc1ccc2c(c1)C(=O)NC1(CCSC1)N2)Nc1ccc(Br)cc1 (stereo not given) | 32 µg/mL (≈ 65.7 µM)

Tested on: Cryptococcus neoformans
Experiment: Synergistic antifungal activity against Cryptococcus neoformans ATCC 32719 assessed as polyoxin B MIC incubated for 24 hrs in by checkerboard broth microdilution method
Assay type: functional
Settings: not given

Row | SMILES | MIC
19 | O=C(/C=C/C(=O)Nc1ccc2c(c1)C(=O)NC1(CCSC1)N2)Nc1ccc(Br)cc1 (stereo not given) | 4 µg/mL

Tested on: Cryptococcus neoformans
Experiment: Synergistic antifungal activity against Cryptococcus neoformans ATCC 32719 assessed as fluconazole MIC incubated for 24 hrs in by checkerboard broth microdilution method
Assay type: functional
Settings: not given

Row | SMILES | MIC
20 | O=C(/C=C/C(=O)Nc1ccc2c(c1)C(=O)NC1(CCSC1)N2)Nc1ccc(Br)cc1 (stereo not given) | 2 µg/mL

Tested on: Aspergillus flavus
Experiment: Synergistic antifungal activity against Aspergillus flavus ATCC 16870 assessed as fluconazole MIC incubated for 24 hrs in by checkerboard broth microdilution method
Assay type: functional
Settings: not given

Row | SMILES | MIC
21 | O=C(/C=C/C(=O)Nc1ccc2c(c1)C(=O)NC1(CCSC1)N2)Nc1ccc(Br)cc1 (stereo not given) | 4 µg/mL

Tested on: Aspergillus fumigatus
Experiment: Antifungal activity against Aspergillus fumigatus GIMCC 3.19 assessed as fungal growth inhibition incubated for 24 hrs by two-fold serial dilution method
Assay type: functional
Settings: not given

Row | SMILES | MIC
22 | O=C(/C=C/C(=O)Nc1ccc2c(c1)C(=O)NC1(CCSC1)N2)Nc1ccc(Br)cc1 (stereo not given) | 8 µg/mL (≈ 16.4 µM)

Tested on: Aspergillus flavus
Experiment: Additive antifungal activity against Aspergillus flavus ATCC 16870 assessed as fractional inhibitory concentration index incubated for 24 hrs in presence of polyoxin B by checkerboard broth microdilution method
Assay type: functional
Settings: not given

Row | SMILES | fractional inhibitory concentration index (FICI)
23 | O=C(/C=C/C(=O)Nc1ccc2c(c1)C(=O)NC1(CCSC1)N2)Nc1ccc(Br)cc1 (stereo not given) | 1.125

Tested on: Cryptococcus neoformans
Experiment: Synergistic antifungal activity against Cryptococcus neoformans ATCC 32719 assessed as fractional inhibitory concentration index incubated for 24 hrs in presence of fluconazole by checkerboard broth microdilution method
Assay type: functional
Settings: not given

Row | SMILES | fractional inhibitory concentration index (FICI)
24 | O=C(/C=C/C(=O)Nc1ccc2c(c1)C(=O)NC1(CCSC1)N2)Nc1ccc(Br)cc1 (stereo not given) | 0.75

Tested on: Candida albicans
Experiment: Antifungal activity against Candida albicans ATCC 76615 assessed as fungal growth inhibition incubated for 24 hrs by two-fold serial dilution method
Assay type: functional
Settings: not given

Row | SMILES | MIC
25 | O=C(/C=C/C(=O)Nc1ccc2c(c1)C(=O)NC1(CCSC1)N2)Nc1ccc(Br)cc1 (stereo not given) | 16 µg/mL (≈ 32.8 µM)

Tested on: Aspergillus fumigatus
Experiment: Antifungal activity against Aspergillus fumigatus GIMCC 3.19 assessed as inhibition of cell wall synthesis incubated for 24 hrs in absence of sorbitol
Assay type: functional
Settings: not given

Row | SMILES | MIC
26 | O=C(/C=C/C(=O)Nc1ccc2c(c1)C(=O)NC1(CCSC1)N2)Nc1ccc(Br)cc1 (stereo not given) | 16 µg/mL (≈ 32.8 µM)

Tested on: Cryptococcus neoformans
Experiment: Antifungal activity against Fluconazole-resistant Cryptococcus neoformans ATCC 32719R assessed as fungal growth inhibition
Assay type: functional
Settings: not given

Row | SMILES | MIC
27 | O=C(/C=C/C(=O)Nc1ccc2c(c1)C(=O)NC1(CCSC1)N2)Nc1ccc(Br)cc1 (stereo not given) | 8 µg/mL (≈ 16.4 µM)

Tested on: Candida albicans
Experiment: Antifungal activity against Candida albicans ATCC 76615 assessed as inhibition of cell wall synthesis incubated for 24 hrs in absence of sorbitol
Assay type: functional
Settings: not given

Row | SMILES | MIC
28 | O=C(/C=C/C(=O)Nc1ccc2c(c1)C(=O)NC1(CCSC1)N2)Nc1ccc(Br)cc1 (stereo not given) | 16 µg/mL (≈ 32.8 µM)

Tested on: Candida albicans
Experiment: Antifungal activity against Candida albicans ATCC 76615 assessed as inhibition of cell wall synthesis incubated for 24 hrs in presence of sorbitol
Assay type: functional
Settings: not given

Row | SMILES | MIC
29 | O=C(/C=C/C(=O)Nc1ccc2c(c1)C(=O)NC1(CCSC1)N2)Nc1ccc(Br)cc1 (stereo not given) | 128 µg/mL

Tested on: Cryptococcus neoformans
Experiment: Antifungal activity against Cryptococcus neoformans ATCC 32719 assessed as inhibition of cell wall synthesis incubated for 24 hrs in presence of sorbitol
Assay type: functional
Settings: not given

Row | SMILES | MIC
30 | O=C(/C=C/C(=O)Nc1ccc2c(c1)C(=O)NC1(CCSC1)N2)Nc1ccc(Br)cc1 (stereo not given) | 128 µg/mL

Tested on: Cryptococcus neoformans
Experiment: Antifungal activity against Cryptococcus neoformans ATCC 32719 assessed as inhibition of cell wall synthesis incubated for 24 hrs in absence of sorbitol
Assay type: functional
Settings: not given

Row | SMILES | MIC
31 | O=C(/C=C/C(=O)Nc1ccc2c(c1)C(=O)NC1(CCSC1)N2)Nc1ccc(Br)cc1 (stereo not given) | 8 µg/mL (≈ 16.4 µM)

Tested on: Aspergillus fumigatus
Experiment: Synergistic antifungal activity against Aspergillus fumigatus GIMCC 3.19 assessed as polyoxin B MIC incubated for 24 hrs by checkerboard broth microdilution method
Assay type: functional
Settings: not given

Row | SMILES | MIC
32 | O=C(/C=C/C(=O)Nc1ccc2c(c1)C(=O)NC1(CCSC1)N2)Nc1ccc(Br)cc1 (stereo not given) | 8 µg/mL

Tested on: Candida albicans
Experiment: Antifungal activity against Micafungin-resistant Candida albicans ATCC 76615R assessed as fungal growth inhibition
Assay type: functional
Settings: not given

Row | SMILES | MIC
33 | O=C(/C=C/C(=O)Nc1ccc2c(c1)C(=O)NC1(CCSC1)N2)Nc1ccc(Br)cc1 (stereo not given) | 16 µg/mL (≈ 32.8 µM)

Tested on: Aspergillus fumigatus
Experiment: Additive antifungal activity against Aspergillus fumigatus GIMCC 3.19 assessed as fractional inhibitory concentration index incubated for 24 hrs in presence of fluconazole by checkerboard broth microdilution method
Assay type: functional
Settings: not given

Row | SMILES | fractional inhibitory concentration index (FICI)
34 | O=C(/C=C/C(=O)Nc1ccc2c(c1)C(=O)NC1(CCSC1)N2)Nc1ccc(Br)cc1 (stereo not given) | 1.125

Tested on: Aspergillus fumigatus
Experiment: Synergistic antifungal activity against Aspergillus fumigatus GIMCC 3.19 assessed as fractional inhibitory concentration index incubated for 24 hrs in presence of polyoxin B by checkerboard broth microdilution method
Assay type: functional
Settings: not given

Row | SMILES | fractional inhibitory concentration index (FICI)
35 | O=C(/C=C/C(=O)Nc1ccc2c(c1)C(=O)NC1(CCSC1)N2)Nc1ccc(Br)cc1 (stereo not given) | 1
